ChEMBL document CHEMBL5712891, “Inhibition of BET bromodomain-dependent XIAP and FLIP expression sensitizes KRAS-mutated NSCLC to pro-apoptotic agents” (Cell Death Dis, 2016)
Calls of active or inactive are those of the source. The rule behind the calls is not given here.

Columns and labels:
DV-90 [1] = test: Induction of apoptosis in human DV-90 cells assessed as necrotic cells at 2.5 uM for 24 hrs by annexin V-PI staining based flow cytometric analysis (reference value: 8.4%); format: functional
NCI-H1373 [2] = test: Induction of apoptosis in human NCI-H1373 cells assessed as necrotic cells at 0.5 uM for 24 hrs by annexin V-PI staining based flow cytometric analysis (reference value: 4.4%); format: functional
NCI-H1373 [3] = test: Induction of apoptosis in human NCI-H1373 cells assessed as viable cells at 2.5 uM for 24 hrs by annexin V-PI staining based flow cytometric analysis (reference value: 71.6%); format: functional; conditions: read-out: Activity
NCI-H460 [4] = test: Induction of apoptosis in human NCI-H460 cells assessed as early apoptotic cells at 2.5 uM for 24 hrs by annexin V-PI staining based flow cytometric analysis (reference value: 0.3%); format: functional
DV-90 [5] = test: Induction of apoptosis in human DV-90 cells assessed as viable cells at 0.5 uM for 48 hrs by annexin V-PI staining based flow cytometric analysis (reference value: 81.9%); conditions: DV-90, 48 h
DV-90 [6] = test: Induction of cell cycle arrest in human DV-90 cells assessed as accumulation of cells at G0/G1 phase at 0.5 uM for 24 hrs by Click-iT EdU Alexa Fluor 647 flow cytometric assay kit analysis (reference value: 45%); format: functional
DV-90 [7] = test: Induction of cell cycle arrest in human DV-90 cells assessed as accumulation of cells at S phase at 0.5 uM for 24 hrs by Click-iT EdU Alexa Fluor 647 flow cytometric assay kit analysis (reference value: 30%); format: functional
DV-90 [8] = test: Induction of cell cycle arrest in human DV-90 cells assessed as accumulation of cells at G2/M phase at 1 uM for 24 hrs by Click-iT EdU Alexa Fluor 647 flow cytometric assay kit analysis (reference value: 25%); format: functional
NCI-H1373 [9] = test: Induction of cell cycle arrest in human NCI-H1373 cells assessed as accumulation of cells at G0/G1 phase at 0.1 uM for 24 hrs by Click-iT EdU Alexa Fluor 647 flow cytometric assay kit analysis (reference value: 45%); format: functional
NCI-H1373 [10] = test: Induction of cell cycle arrest in human NCI-H1373 cells assessed as accumulation of cells at G0/G1 phase at 0.25 uM for 24 hrs by Click-iT EdU Alexa Fluor 647 flow cytometric assay kit analysis (reference value: 45%); format: functional
NCI-H1373 [11] = test: Induction of cell cycle arrest in human NCI-H1373 cells assessed as accumulation of cells at G0/G1 phase at 1 uM for 24 hrs by Click-iT EdU Alexa Fluor 647 flow cytometric assay kit analysis (reference value: 45%); format: functional
A549 [12] = test: Induction of cell cycle arrest in human A549 cells assessed as accumulation of cells at G2/M phase at 0.5 uM for 24 hrs by Click-iT EdU Alexa Fluor 647 flow cytometric assay kit analysis (reference value: 3%); format: functional
DV-90 [13] = test: Induction of apoptosis in human DV-90 cells assessed as viable cells at 0.5 uM for 24 hrs by annexin V-PI staining based flow cytometric analysis (reference value: 81.5%); format: functional; conditions: read-out: Activity
DV-90 [14] = test: Induction of apoptosis in human DV-90 cells assessed as viable cells at 2.5 uM for 24 hrs by annexin V-PI staining based flow cytometric analysis (reference value: 81.5%); format: functional; conditions: read-out: Activity
A549 [15] = test: Induction of apoptosis in human A549 cells assessed as viable cells at 0.5 uM for 24 hrs by annexin V-PI staining based flow cytometric analysis (reference value: 96%); format: functional; conditions: read-out: Activity
A549 [16] = test: Induction of apoptosis in human A549 cells assessed as necrotic cells at 0.5 uM for 24 hrs by annexin V-PI staining based flow cytometric analysis (reference value: 1.3%); format: functional
A549 [17] = test: Induction of apoptosis in human A549 cells assessed as early apoptotic cells at 2.5 uM for 24 hrs by annexin V-PI staining based flow cytometric analysis (reference value: 0.4%); format: functional
NCI-H1373 [18] = test: Induction of apoptosis in human NCI-H1373 cells assessed as early apoptotic cells at 0.5 uM for 24 hrs by annexin V-PI staining based flow cytometric analysis (reference value: 0.6%); format: functional
NCI-H1373 [19] = test: Induction of apoptosis in human NCI-H1373 cells assessed as viable cells at 2.5 uM for 24 hrs by annexin V-PI staining based flow cytometric analysis (reference value: 77.7%); format: functional; conditions: read-out: Activity
NCI-H1373 [20] = test: Induction of apoptosis in human NCI-H1373 cells assessed as late apoptotic cells at 2.5 uM for 24 hrs by annexin V-PI staining based flow cytometric analysis (reference value: 16.2%); format: functional
NCI-H2030 [21] = test: Downregulation of c-MYC protein level in human NCI-H2030 cells at 100 to 5000 nM upto 24 hrs by Western blot analysis; format: functional, cell-based; conditions: dose 100-5000 nM
SK-LU-1 [22] = test: Downregulation of c-MYC mRNA expression level in human SK-LU-1 cells at 0.1 to 1 uM for 24 hrs by qRT-PCR analysis; format: functional, cell-based; conditions: dose 0.1-1 µM
NCI-H441 = test: Downregulation of c-MYC mRNA expression level in human NCI-H441 cells at 0.1 to 1 uM for 24 hrs by qRT-PCR analysis; format: functional, cell-based; conditions: dose 0.1-1 µM
NCI-H2030 [23] = test: Downregulation of FLIP mRNA expression level in human NCI-H2030 cells at 0.1 to 1 uM for 24 hrs by qRT-PCR analysis; format: functional, cell-based; conditions: dose 0.1-1 µM
NCI-H23 = test: Downregulation of XIAP protein expression level in human NCI-H23 cells at 1 uM for 24 hrs by […] analysis; format: functional, cell-based
NCI-H460 [24] = test: Downregulation of XIAP protein expression level in human NCI-H460 cells at 1 uM for 24 hrs by […] analysis; format: functional, cell-based
NCI-H358 [25] = test: Downregulation of XIAP protein expression level in human NCI-H358 cells at 1 uM for 24 hrs by […] analysis; format: functional, cell-based
SK-LU-1 [26] = test: Downregulation of c-MYC protein expression level in human SK-LU-1 cells at 1 uM for 24 hrs by […] analysis; format: functional, cell-based
NCI-H1373 [27] = test: Induction of TRAIL dependent apoptosis in human NCI-H1373 cells by annexin V-PI staining based flow cytometric analysis; format: functional, cell-based
NCI-H460 [28] = test: Antiproliferative activity against human NCI-H460 cells at 500 to 2500 nM in presence of TNF by cell titre glo assay; format: functional, cell-based; conditions: dose 500-2500 nM
NCI-H358 [29] = test: Antiproliferative activity against human NCI-H358 cells at 500 to 2500 nM in presence of TNF by cell titre glo assay; format: functional, cell-based; conditions: dose 500-2500 nM
A549 [30] = test: Induction of apoptosis in human A549 cells assessed as late apoptotic cells at 1 uM by annexin V-PI based flow cytometric analysis (reference value: 2.5%); format: functional
A549 [31] = test: Induction of apoptosis in human A549 cells assessed as viable cells at 1 uM in presence of cisplatin by annexin V-PI based flow cytometric analysis (reference value: 95.7%); format: functional; conditions: read-out: Activity
A549 [32] = test: Induction of apoptosis in human A549 cells assessed as necrotic cells at 1 uM in presence of cisplatin by annexin V-PI based flow cytometric analysis (reference value: 1.6%); format: functional

Cc1sc2c(c1C)C(c1ccc(Cl)cc1)=N[C@@H](CC(=O)Nc1ccc(O)cc1)c1nnc(C)n1-2 [BIRABRESIB]
Activity (DV-90 [1]): 33.7%
Activity (NCI-H1373 [2]): 9.6%
viability at 2.5 µM (NCI-H1373 [3]): 56.2%
Activity (NCI-H460 [4]): 0.6%
viability at 0.5 µM (DV-90 [5]): 57.6%

CCNC(=O)C[C@@H]1N=C(c2ccc(Cl)cc2)c2cc(OC)ccc2-n2c(C)nnc21 [MOLIBRESIB]
Activity (DV-90 [6]): 47%
Activity (DV-90 [7]): 25%
Activity (DV-90 [8]): 27%
Activity (NCI-H1373 [9]): 46%
Activity (NCI-H1373 [10]): 49%
Activity (NCI-H1373 [11]): 50%

Cc1sc2c(c1C)C(c1ccc(Cl)cc1)=N[C@@H](CC(=O)OC(C)(C)C)c1nnc(C)n1-2
Activity (A549 [12]): 3%
viability at 0.5 µM (DV-90 [13]): 61.3%
viability at 2.5 µM (DV-90 [14]): 50.7%
viability at 0.5 µM (A549 [15]): 97.2%
Activity (A549 [16]): 1.2%
Activity (A549 [17]): 0.2%
Activity (NCI-H1373 [18]): 2.5%
viability at 2.5 µM (NCI-H1373 [19]): 58%
Activity (NCI-H1373 [20]): 21.9%
Activity (NCI-H2030 [21]): inactive
Activity (SK-LU-1 [22]): Active
Activity (NCI-H441): Active
Activity (NCI-H2030 [23]): Active
Activity (NCI-H23): Active
Activity (NCI-H460 [24]): Active
Activity (NCI-H358 [25]): Active
Activity (SK-LU-1 [26]): Active
Activity (NCI-H1373 [27]): Active
Activity (NCI-H460 [28]): Active
Activity (NCI-H358 [29]): Active
Activity (A549 [30]): 1.2%
viability at 1 µM (A549 [31]): 58.9%
Activity (A549 [32]): 10.3%
